From ChEMBL document CHEMBL5058564, “EUbOPEN Chemogenomics Library 2 (Incucyte)” (2022)
“And” between values parts separate entries of the source, which are not always exact repeats. Equal values may be shown once.

Assays:
Assay type in all cases: toxicity, cell-based
Fibroblast = assay: Incucyte cell viability with human fibroblast; details: 10 µM, compound concentration 10 uM
U2OS = assay: Incucyte cell viability with U2OS; details: human, 10 µM, compound concentration 10 uM
HEK-293T = assay: Incucyte cell viability with HEK293T; details: human, 10 µM, compound concentration 10 uM
[1] = 0 h, replicate number 2, timepoint 0 hours
[2] = 6 h, replicate number 2, timepoint 6 hours
[3] = 12 h, replicate number 2, timepoint 12 hours
[4] = 6 h, replicate number 1, timepoint 6 hours
[5] = 18 h, replicate number 2, timepoint 18 hours
[6] = 12 h, replicate number 1, timepoint 12 hours
[7] = 18 h, replicate number 1, timepoint 18 hours
[8] = 24 h, replicate number 1, timepoint 24 hours
[9] = 0 h, replicate number 1, timepoint 0 hours
[10] = 24 h, replicate number 2, timepoint 24 hours
Note: unitless GR value; below 1 slowed growth and below 0 cell loss.

## CCCCC(=O)N(Cc1ccc(-c2ccccc2-c2nnn[nH]2)cc1)[C@H](C(=O)O)C(C)C
Fibroblast; [1]
  Growth Rate: 0.94
Fibroblast; [2]
  Growth Rate: 0.44
Fibroblast; [3]
  Growth Rate: 0.96
U2OS; [1]
  Growth Rate: -0.99
U2OS; [4]
  Growth Rate: 0.76
U2OS; [3]
  Growth Rate: 0.99
U2OS; [5]
  Growth Rate: 0.92
HEK-293T; [1]
  Growth Rate: 0.85
HEK-293T; [4]
  Growth Rate: 0.44
HEK-293T; [2]
  Growth Rate: 0.43
HEK-293T; [6]
  Growth Rate: 0.75
HEK-293T; [3]
  Growth Rate: 0.94
HEK-293T; [7]
  Growth Rate: 0.6
HEK-293T; [8]
  Growth Rate: 0.8

## CCOC(=O)c1c(/C(C#N)=C\N)c2ccc(Cl)c(Cl)c2n1C
Fibroblast; [9]
  Growth Rate: 0.69
Fibroblast; [6]
  Growth Rate: 0.64
Fibroblast; [3]
  Growth Rate: 0.53
Fibroblast; [7]
  Growth Rate: 0.47
Fibroblast; [5]
  Growth Rate: 0.72
Fibroblast; [8]
  Growth Rate: 0.29
Fibroblast; [10]
  Growth Rate: 0.73
U2OS; [9]
  Growth Rate: -0.21
U2OS; [4]
  Growth Rate: 0.29
U2OS; [6]
  Growth Rate: 0.64
U2OS; [7]
  Growth Rate: 0.5
U2OS; [8]
  Growth Rate: 0.73
HEK-293T; [9]
  Growth Rate: 0.5
HEK-293T; [1]
  Growth Rate: 0.59
HEK-293T; [4]
  Growth Rate: 0.56
HEK-293T; [2]
  Growth Rate: 0.47
HEK-293T; [3]
  Growth Rate: 0.77
HEK-293T; [7]
  Growth Rate: 0.9
HEK-293T; [5]
  Growth Rate: 0.7
HEK-293T; [8]
  Growth Rate: 0.99
HEK-293T; [10]
  Growth Rate: 0.93

## CCOC(=O)Nc1cc(-c2ccc(C)c(NS(C)(=O)=O)c2)nn2c(C)nnc12
Fibroblast; [1]
  Growth Rate: 0.22
Fibroblast; [4]
  Growth Rate: -0.16
Fibroblast; [10]
  Growth Rate: 0.95
U2OS; [9]
  Growth Rate: 0.25
U2OS; [4]
  Growth Rate: 0.15
U2OS; [2]
  Growth Rate: 0.59
U2OS; [6]
  Growth Rate: 0.56
U2OS; [3]
  Growth Rate: 0.95
U2OS; [7]
  Growth Rate: 0.82
U2OS; [5]
  Growth Rate: 0.95
U2OS; [8]
  Growth Rate: 0.83
U2OS; [10]
  Growth Rate: 0.84
HEK-293T; [9]
  Growth Rate: 0.65
HEK-293T; [1]
  Growth Rate: 0.66
HEK-293T; [6]
  Growth Rate: 0.95
HEK-293T; [7]
  Growth Rate: 0.79
HEK-293T; [5]
  Growth Rate: 0.98
HEK-293T; [8]
  Growth Rate: 0.46
HEK-293T; [10]
  Growth Rate: 0.76

## CC(C)c1c(NC(=O)Nc2ccc(Cl)cc2)c(=O)n(-c2ccccc2)n1C
Fibroblast; [9]
  Growth Rate: 0.29
Fibroblast; [1]
  Growth Rate: 0.39
Fibroblast; [4]
  Growth Rate: 0.31
Fibroblast; [6]
  Growth Rate: 0.35
Fibroblast; [3]
  Growth Rate: 0.54
Fibroblast; [7]
  Growth Rate: 0.76
Fibroblast; [5]
  Growth Rate: 0.54
Fibroblast; [8]
  Growth Rate: 0.69
Fibroblast; [10]
  Growth Rate: 0.44
U2OS; [9]
  Growth Rate: -0.9
U2OS; [1]
  Growth Rate: -0.97
HEK-293T; [1]
  Growth Rate: 0.92
HEK-293T; [2]
  Growth Rate: 0.74
HEK-293T; [6]
  Growth Rate: 0.65
HEK-293T; [3]
  Growth Rate: 0.96
HEK-293T; [7]
  Growth Rate: 0.55
HEK-293T; [8]
  Growth Rate: 0.53
HEK-293T; [10]
  Growth Rate: 0.96

## O=C(Nc1cc(C(F)(F)F)ccc1N1CCCCC1)c1ccncc1
Fibroblast; [1]
  Growth Rate: 0.62
Fibroblast; [4]
  Growth Rate: -0.18
Fibroblast; [6]
  Growth Rate: 0.52
Fibroblast; [7]
  Growth Rate: 0.65
Fibroblast; [8]
  Growth Rate: 0.59
Fibroblast; [10]
  Growth Rate: 0.83
U2OS; [9]
  Growth Rate: -0.22
U2OS; [1]
  Growth Rate: 0.81
U2OS; [4]
  Growth Rate: 0.54
U2OS; [2]
  Growth Rate: 0.75
U2OS; [6]
  Growth Rate: 0.85
U2OS; [3]
  Growth Rate: 0.76
U2OS; [7]
  Growth Rate: 0.87
U2OS; [5]
  Growth Rate: 0.99
U2OS; [8]
  Growth Rate: 0.81
HEK-293T; [9]
  Growth Rate: 0.08
HEK-293T; [1]
  Growth Rate: 0.52
HEK-293T; [3]
  Growth Rate: 0.9
HEK-293T; [10]
  Growth Rate: 0.95

## CCCCNNC(=O)c1ccc(Br)cc1
Fibroblast; [9]
  Growth Rate: 0.73
Fibroblast; [1]
  Growth Rate: 0.26
Fibroblast; [4]
  Growth Rate: -0.07
Fibroblast; [2]
  Growth Rate: 0.86
Fibroblast; [6]
  Growth Rate: 0.37
Fibroblast; [7]
  Growth Rate: 0.74
Fibroblast; [5]
  Growth Rate: 0.93
Fibroblast; [8]
  Growth Rate: 0.99
Fibroblast; [10]
  Growth Rate: 0.91
U2OS; [1]
  Growth Rate: -0.23
U2OS; [3]
  Growth Rate: 0.99
U2OS; [7]
  Growth Rate: 0.94
U2OS; [10]
  Growth Rate: 0.91
HEK-293T; [9]
  Growth Rate: 0.97
HEK-293T; [1]
  Growth Rate: 0.79
HEK-293T; [6]
  Growth Rate: 0.93
HEK-293T; [3]
  Growth Rate: 0.77

## C=CCNc1ncnc2ccc(Br)cc12
Fibroblast; [1]
  Growth Rate: 0.05
Fibroblast; [6]
  Growth Rate: 0.47
Fibroblast; [7]
  Growth Rate: 0.3
Fibroblast; [5]
  Growth Rate: 0.98
Fibroblast; [8]
  Growth Rate: 0.45
Fibroblast; [10]
  Growth Rate: 0.75
U2OS; [1]
  Growth Rate: 0.44
U2OS; [6]
  Growth Rate: 0.96
U2OS; [3]
  Growth Rate: 0.77
U2OS; [7]
  Growth Rate: 0.82
U2OS; [5]
  Growth Rate: 0.85
U2OS; [8]
  Growth Rate: 0.97
U2OS; [10]
  Growth Rate: 0.9
HEK-293T; [9]
  Growth Rate: 0.98
HEK-293T; [1]
  Growth Rate: 0.64
HEK-293T; [4]
  Growth Rate: 0.57
HEK-293T; [6]
  Growth Rate: 0.84
HEK-293T; [7]
  Growth Rate: 0.58
HEK-293T; [5]
  Growth Rate: 0.9
HEK-293T; [8]
  Growth Rate: 0.91
HEK-293T; [10]
  Growth Rate: 0.96

## Nc1nccc(-c2ccn3c(N)nccc23)n1
Fibroblast; [9]
  Growth Rate: -0.59
Fibroblast; [1]
  Growth Rate: -0.24
Fibroblast; [3]
  Growth Rate: 0.84
Fibroblast; [5]
  Growth Rate: 0.76
Fibroblast; [10]
  Growth Rate: 0.72
U2OS; [9]
  Growth Rate: 0.63
U2OS; [1]
  Growth Rate: 0.39
U2OS; [2]
  Growth Rate: 0.89
U2OS; [3]
  Growth Rate: 0.92
U2OS; [5]
  Growth Rate: 0.85
U2OS; [8]
  Growth Rate: 0.98
U2OS; [10]
  Growth Rate: 0.82
HEK-293T; [9]
  Growth Rate: -0.7
HEK-293T; [1]
  Growth Rate: 0.28
HEK-293T; [7]
  Growth Rate: 0.93
HEK-293T; [8]
  Growth Rate: 0.76
HEK-293T; [10]
  Growth Rate: 1

## COc1cc(Nc2nc(C)cc(-c3cnn4nc(OC)ccc34)n2)cc(C(F)(F)F)c1
Fibroblast; [5]
  Growth Rate: 0.67 and 0.25
Fibroblast; [10]
  Growth Rate: 0.58 and 0.24
U2OS; [9]
  Growth Rate: 0.11
U2OS; [1]
  Growth Rate: 0.84
U2OS; [4]
  Growth Rate: 0.24
U2OS; [2]
  Growth Rate: 0.89 and 0.77
U2OS; [6]
  Growth Rate: 0.61 and 0.48
U2OS; [3]
  Growth Rate: 1 and 0.46
U2OS; [7]
  Growth Rate: 0.85 and 0.45
U2OS; [5]
  Growth Rate: 0.62 and 0.36
U2OS; [8]
  Growth Rate: 0.62 and 0.35
U2OS; [10]
  Growth Rate: 0.76 and 0.27
HEK-293T; [9]
  Growth Rate: 0.76
HEK-293T; [2]
  Growth Rate: 0.89
HEK-293T; [3]
  Growth Rate: 0.84
HEK-293T; [5]
  Growth Rate: 0.94
HEK-293T; [10]
  Growth Rate: 0.85

## CC1=C(C)C(=O)C(C(C)(C)CC(=O)N(CCCCSC[C@H]2O[C@@H](n3cnc4c(N)ncnc43)[C@@H]3OC(C)(C)O[C@@H]32)Cc2cccc(-c3ccc(Cl)cc3)c2)=C(C)C1=O
Fibroblast; [9]
  Growth Rate: 0.04
Fibroblast; [1]
  Growth Rate: 0.08
U2OS; [9]
  Growth Rate: -0.32
U2OS; [6]
  Growth Rate: 0.3
U2OS; [3]
  Growth Rate: 0.93
U2OS; [7]
  Growth Rate: 0.49
U2OS; [5]
  Growth Rate: 0.87
U2OS; [8]
  Growth Rate: 0.63
U2OS; [10]
  Growth Rate: 0.92
HEK-293T; [9]
  Growth Rate: 0.72
HEK-293T; [1]
  Growth Rate: 0.07
HEK-293T; [6]
  Growth Rate: 0.85
HEK-293T; [3]
  Growth Rate: 0.97
HEK-293T; [5]
  Growth Rate: 0.94
HEK-293T; [8]
  Growth Rate: 0.96

## COC[C@@H](CC(C)C)NC1=N/C(=C\c2ccc3ncsc3c2)C(=O)N1C
Fibroblast; [9]
  Growth Rate: 0.25
Fibroblast; [1]
  Growth Rate: -0.23
U2OS; [1]
  Growth Rate: 0.78
U2OS; [6]
  Growth Rate: 0.43
U2OS; [3]
  Growth Rate: 0.53
U2OS; [7]
  Growth Rate: 0.22
U2OS; [5]
  Growth Rate: 0.38
U2OS; [8]
  Growth Rate: 0.25
U2OS; [10]
  Growth Rate: 0.35
HEK-293T; [9]
  Growth Rate: -0.43
HEK-293T; [1]
  Growth Rate: -0.15
HEK-293T; [4]
  Growth Rate: 0.84
HEK-293T; [6]
  Growth Rate: 0.24
HEK-293T; [3]
  Growth Rate: 0.41
HEK-293T; [7]
  Growth Rate: 0.39
HEK-293T; [5]
  Growth Rate: 0.38
HEK-293T; [8]
  Growth Rate: 0.48
HEK-293T; [10]
  Growth Rate: 0.42

## CC(=O)c1cc(-c2ccccc2OCC2CC2)c2ncccn12
Fibroblast; [1]
  Growth Rate: 0.39
Fibroblast; [2]
  Growth Rate: 0.72
Fibroblast; [3]
  Growth Rate: 0.88
U2OS; [9]
  Growth Rate: 0.8
U2OS; [1]
  Growth Rate: 0.26
U2OS; [4]
  Growth Rate: 0.45
U2OS; [2]
  Growth Rate: 0.99
U2OS; [7]
  Growth Rate: 0.98
U2OS; [8]
  Growth Rate: 0.98
HEK-293T; [9]
  Growth Rate: 0.61
HEK-293T; [7]
  Growth Rate: 0.98

## CN(c1ncccc1CNc1ccnc(-c2nc3c(F)c(Cl)ccc3[nH]2)n1)S(C)(=O)=O
Fibroblast; [1]
  Growth Rate: 0.75
Fibroblast; [4]
  Growth Rate: -0.47
Fibroblast; [6]
  Growth Rate: 0.38
Fibroblast; [7]
  Growth Rate: 0.27
Fibroblast; [8]
  Growth Rate: 0.36
Fibroblast; [10]
  Growth Rate: 0.92
U2OS; [9]
  Growth Rate: -0.62
U2OS; [1]
  Growth Rate: -0.69
U2OS; [4]
  Growth Rate: 0.1
U2OS; [2]
  Growth Rate: 0.61
U2OS; [6]
  Growth Rate: 0.15
U2OS; [3]
  Growth Rate: 0.66
U2OS; [7]
  Growth Rate: 0.62
U2OS; [5]
  Growth Rate: 0.87
U2OS; [8]
  Growth Rate: 0.78
U2OS; [10]
  Growth Rate: 0.72
HEK-293T; [9]
  Growth Rate: -0.02
HEK-293T; [1]
  Growth Rate: 0.48
HEK-293T; [4]
  Growth Rate: 0.84
HEK-293T; [6]
  Growth Rate: 0.97
HEK-293T; [3]
  Growth Rate: 0.72
HEK-293T; [7]
  Growth Rate: 0.93
HEK-293T; [5]
  Growth Rate: 0.99
HEK-293T; [10]
  Growth Rate: 0.81

## Cc1onc(-c2ccccc2Cl)c1C(=O)N(C)c1ccc(Cl)cc1
Fibroblast; [9]
  Growth Rate: -0.53
Fibroblast; [1]
  Growth Rate: 0.86
U2OS; [2]
  Growth Rate: 0.56
U2OS; [3]
  Growth Rate: 0.67
U2OS; [5]
  Growth Rate: 0.85
U2OS; [10]
  Growth Rate: 0.96
HEK-293T; [1]
  Growth Rate: 0.62
